Source: patent US20250228835A1, “PYRIDINYLOXYPYRIDINES AND RELATED COMPOUNDS AND THEIR USE IN TREATING MEDICAL CONDITIONS” (Rectify Pharmaceuticals, Inc., priority 2024, published 2025)

molecular target: T1, ABCC6 WT (Homo sapiens, UniProt O95255); test: ABCC6 WT assay: HiBit protein expression; format: cell-based; settings: HEK-293 cells transiently expressing HiBit-tagged ABCC6 WT; 24 h treatment; top concentration 20 μM; read-out: ABCC6 WT EC50, Emax
T1 construct: expressed in transfected cells; host or cells: HEK-293 (transient, Lipofectamine 2000)
How it was run: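 HEK-293 cells transiently transfected with HiBit-tagged human ABCC6 WT cDNA, seeded 24 h post-transfection, treated 24 h at 37° C with ten 2-fold doses (top 20 μM final, 0.15% DMSO). HiBit lytic luminescence reports protein expression; Emax and EC50 derived.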

T1 sequence (O95255 whole entry): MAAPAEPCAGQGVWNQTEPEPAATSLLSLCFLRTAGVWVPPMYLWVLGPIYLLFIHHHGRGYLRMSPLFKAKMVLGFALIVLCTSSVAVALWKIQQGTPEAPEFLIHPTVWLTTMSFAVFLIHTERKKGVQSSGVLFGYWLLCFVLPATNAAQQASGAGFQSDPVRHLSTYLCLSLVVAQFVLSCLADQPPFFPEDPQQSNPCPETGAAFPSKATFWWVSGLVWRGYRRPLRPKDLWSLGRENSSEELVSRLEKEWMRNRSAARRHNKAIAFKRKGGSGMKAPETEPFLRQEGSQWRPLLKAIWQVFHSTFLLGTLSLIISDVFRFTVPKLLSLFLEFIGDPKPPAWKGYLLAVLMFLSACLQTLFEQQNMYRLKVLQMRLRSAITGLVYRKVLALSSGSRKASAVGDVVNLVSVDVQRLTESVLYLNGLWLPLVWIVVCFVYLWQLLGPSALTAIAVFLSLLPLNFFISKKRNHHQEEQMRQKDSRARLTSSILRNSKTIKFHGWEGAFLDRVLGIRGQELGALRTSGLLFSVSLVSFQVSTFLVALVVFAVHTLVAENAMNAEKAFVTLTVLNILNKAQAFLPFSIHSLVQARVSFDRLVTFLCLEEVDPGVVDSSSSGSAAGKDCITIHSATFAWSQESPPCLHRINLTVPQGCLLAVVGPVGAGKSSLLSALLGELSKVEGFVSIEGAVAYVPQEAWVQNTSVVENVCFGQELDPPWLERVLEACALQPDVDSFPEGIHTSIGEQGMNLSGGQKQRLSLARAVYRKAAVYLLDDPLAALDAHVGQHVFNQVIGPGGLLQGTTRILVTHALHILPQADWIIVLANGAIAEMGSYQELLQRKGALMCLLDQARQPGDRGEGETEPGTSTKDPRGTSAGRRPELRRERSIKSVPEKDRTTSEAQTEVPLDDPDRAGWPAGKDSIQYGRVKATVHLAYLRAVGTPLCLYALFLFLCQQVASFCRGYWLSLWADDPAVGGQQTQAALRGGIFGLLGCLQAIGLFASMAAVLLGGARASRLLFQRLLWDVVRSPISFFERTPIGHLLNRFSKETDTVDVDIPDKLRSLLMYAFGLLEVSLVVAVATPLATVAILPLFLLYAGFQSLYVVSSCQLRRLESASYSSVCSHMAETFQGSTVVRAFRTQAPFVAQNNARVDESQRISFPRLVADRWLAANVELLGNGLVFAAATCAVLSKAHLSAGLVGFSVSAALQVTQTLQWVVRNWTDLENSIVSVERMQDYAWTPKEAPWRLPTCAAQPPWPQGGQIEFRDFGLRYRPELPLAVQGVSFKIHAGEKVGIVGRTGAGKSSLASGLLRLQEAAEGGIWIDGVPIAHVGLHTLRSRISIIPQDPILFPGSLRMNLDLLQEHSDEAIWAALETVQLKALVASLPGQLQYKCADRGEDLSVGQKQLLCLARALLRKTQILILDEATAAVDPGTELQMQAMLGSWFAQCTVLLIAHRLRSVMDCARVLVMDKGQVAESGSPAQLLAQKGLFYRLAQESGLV

Row | Structure (SMILES) | EC50
1 | Cc1cc(C)c(Oc2nc(-n3cc(C)cn3)ccc2NS(C)(=O)=O)c(C)c1 [Compound I-11] | 1 to 10 µM
2 | Cc1cc(C)c(Oc2nc(-n3cnc(C)c3)ccc2NS(C)(=O)=O)c(C)c1 [Compound I-12] | < 1 µM
3 | Cc1cc(C)c(Oc2nc(-c3cnn(C)c3C)ccc2NS(C)(=O)=O)c(C)c1 [Compound I-13] | < 1 µM
4 | Cc1cc(C)c(Oc2nc(-c3cnn(C)c3)ccc2NS(C)(=O)=O)c(C)c1 [Compound I-14] | 1 to 10 µM
5 | Cc1cc(C)c(Oc2nc(N3CCN(C(=O)C4(C)CC4)CC3)ccc2NS(C)(=O)=O)c(C)c1 [Compound I-15] | 1 to 10 µM
6 | COC(=O)N1CCN(c2ccc(NS(C)(=O)=O)c(Oc3c(C)cc(C)cc3C)n2)CC1 [Compound I-16] | 1 to 10 µM
7 | CC(=O)N1CCN(c2ccc(NS(C)(=O)=O)c(Oc3c(C)cc(C)cc3C)n2)CC1 [Compound I-17] | 1 to 10 µM
8 | Cc1nc(Oc2nc(-c3cncc(C#N)c3)ccc2NS(C)(=O)=O)c(C)s1 [Compound I-107] | < 1 µM
9 | Cc1cc(Oc2nc(-c3cncc(C#N)c3)ccc2NS(C)(=O)=O)nn1C [Compound I-113] | 1 to 10 µM
10 | Cc1nn(C)c(C)c1Oc1nc(-c2cncc(C#N)c2)ccc1NS(C)(=O)=O [Compound I-115] | < 1 µM
11 | Cc1cc(C)c(Oc2nc(-c3cncc(S(C)(=N)=O)c3)ccc2NS(C)(=O)=O)c(C)n1 (stereo not shown) [Compound I-116] | ≥ 25 µM
12 | Cc1nc(C2CC2)c(Cl)cc1Oc1nc(-c2cncc(C#N)c2)ccc1NS(C)(=O)=O [Compound I-120] | < 1 µM
13 | Cc1cc(Oc2nc(-c3cncc(C#N)c3)ccc2NS(C)(=O)=O)c(C)nc1C1CC1 [Compound I-127] | < 1 µM
14 | Cc1cc(OC(F)(F)F)nc(C)c1Oc1nc(-c2cncc(C#N)c2)ccc1NS(C)(=O)=O [Compound I-131] | < 1 µM
15 | Cc1cc(OC2CC2)nc(C)c1Oc1nc(-c2cncc(C#N)c2)ccc1NS(C)(=O)=O [Compound I-132] | < 1 µM
16 | Cc1nc(C)c(Oc2nc(-c3cncc(C#N)c3)ccc2NS(C)(=O)=O)c(C2CC2)n1 [Compound I-165] | < 1 µM
17 | Cc1cc(C)c(Oc2nc(-c3cncc(C#N)c3)ccc2N(C)S(C)(=O)=O)c(C)n1 [Compound I-166] | 1 to 10 µM
18 | CNS(=O)(=O)c1ccc(-c2cncc(C#N)c2)nc1Oc1c(C)nc(C(F)(F)F)nc1C [Compound I-167] | 1 to 10 µM
19 | CNS(=O)(=O)c1ccc(-c2cncc(C#N)c2)nc1Oc1c(C)cc(C(F)(F)F)nc1C [Compound I-168] | 1 to 10 µM
20 | Cc1nc(N2CC(S(C)(=O)=O)C2)nc(C)c1Oc1nc(-c2cncc(C#N)c2)ccc1NS(C)(=O)=O [Compound I-169] | 1 to 10 µM
21 | Cc1nc(N2CC(F)(F)C2)nc(C)c1Oc1nc(-c2cncc(C#N)c2)ccc1NS(C)(=O)=O [Compound I-170] | < 1 µM
22 | Cc1cc(C2CC2)c(Oc2nc(-c3cncc(C#N)c3)ccc2NS(C)(=O)=O)c(C)n1 [Compound I-171] | < 1 µM
23 | Cc1cc(C)c(Oc2nc(-c3cncc(C#N)c3)ccc2NS(=O)(=O)C2(C)CC2)c(C)n1 [Compound I-172] | 1 to 10 µM
24 | Cc1nc(C(F)F)nc(C)c1Oc1nc(-c2cncc(C#N)c2)ccc1NS(C)(=O)=O [Compound I-173] | < 1 µM
25 | Cc1nc(C2COC2)nc(C)c1Oc1nc(-c2cncc(C#N)c2)ccc1NS(C)(=O)=O [Compound I-174] | < 1 µM

Row | Structure (SMILES) | EC50
26 | Cc1nc(C(F)F)nc(C)c1Oc1nc(-c2cncc(Cl)c2)ccc1NS(C)(=O)=O [Compound I-175] | < 1 µM
27 | Cc1cc(C)c(Oc2nc(-c3cncc(C#N)c3)ccc2NS(C)(=O)=O)c(OC2CC2)n1 [Compound I-176] | < 1 µM
28 | Cc1cc(N2CCC2)nc(C)c1Oc1nc(-c2cncc(C#N)c2)ccc1NS(C)(=O)=O [Compound I-177] | < 1 µM
29 | Cc1nc(OC2CC2)c(C(F)(F)F)cc1Oc1nc(-c2cncc(C#N)c2)ccc1NS(C)(=O)=O [Compound I-178] | < 1 µM
30 | Cc1nc(C2CC2)c(C(F)F)cc1Oc1nc(-c2cncc(C#N)c2)ccc1NS(C)(=O)=O [Compound I-179] | < 1 µM
31 | Cc1cc(N2CC(F)(F)C2)nc(C)c1Oc1nc(-c2cncc(C#N)c2)ccc1NS(C)(=O)=O [Compound I-180] | < 1 µM
32 | Cc1nc(C2CCC2)nc(C)c1Oc1nc(-c2cncc(C#N)c2)ccc1NS(C)(=O)=O [Compound I-181] | < 1 µM
33 | Cc1cc(Oc2nc(-c3cncc(C#N)c3)ccc2NS(C)(=O)=O)c(C)nc1C(F)(F)F [Compound I-182] | < 1 µM
34 | Cc1nc(C2CC2)nc(C)c1Oc1nc(-c2cncc(C#N)c2)ccc1NS(C)(=O)=O [Compound I-183] | < 1 µM
35 | Cc1nc(C2CC2)c(C(F)(F)F)cc1Oc1nc(-c2cncc(C#N)c2)ccc1NS(C)(=O)=O [Compound I-184] | < 1 µM
36 | Cc1cc(C)c(Oc2nc(-c3cncc(N4CC(F)C4)c3)ccc2NS(C)(=O)=O)c(C)n1 [Compound I-185] | < 1 µM
37 | Cc1cc(C)c(Oc2nc(-c3ccn(C)c(=O)c3)ccc2NS(C)(=O)=O)c(C)n1 [Compound I-186] | < 25 µM
38 | Cc1cc(C)c(Oc2nc(-c3cc[nH]c(=O)c3)ccc2NS(C)(=O)=O)c(C)n1 [Compound I-187] | ≥ 25 µM
39 | COc1cc(-c2ccc(NS(C)(=O)=O)c(Oc3c(C)cc(C)nc3C)n2)ccn1 [Compound I-188] | < 1 µM
40 | Cc1cc(C)c(Oc2nc(-c3cncc(N4CCC4)c3)ccc2NS(C)(=O)=O)c(C)n1 [Compound I-190] | < 1 µM
41 | Cc1nc(C)c(Oc2nc(-c3cncc(C(F)F)c3)ccc2NS(C)(=O)=O)c(C)n1 [Compound I-191] | 1 to 10 µM
42 | Cc1nc(C)c(Oc2nc(-c3cncc(C(F)(F)F)c3)ccc2NS(C)(=O)=O)c(C)n1 [Compound I-192] | < 1 µM
43 | Cc1nc(C)c(Oc2nc(-c3cncc(C4CC4)c3)ccc2NS(C)(=O)=O)c(C)n1 [Compound I-193] | < 1 µM
44 | Cc1cc(C)c(Oc2nc(-c3cncc(C4CN(C)C4)c3)ccc2NS(C)(=O)=O)c(C)n1 [Compound I-194] | ≥ 25 µM
45 | Cc1cc(C)c(Oc2nc(-c3cncc(N4CC(F)(F)C4)c3)ccc2NS(C)(=O)=O)c(C)n1 [Compound I-195] | < 1 µM
46 | COC1CN(c2cncc(-c3ccc(NS(C)(=O)=O)c(Oc4c(C)cc(C)nc4C)n3)c2)C1 [Compound I-196] | < 1 µM
47 | Cc1cc(C(F)F)nc(C)c1Oc1nc(-c2cncc(C3COC3)c2)ccc1NS(C)(=O)=O [Compound I-197] | < 1 µM
48 | Cc1cc(C(F)(F)F)nc(C)c1Oc1nc(-c2cncc(C3COC3)c2)ccc1NS(C)(=O)=O [Compound I-198] | ≥ 25 µM
49 | Cc1cc(C(F)F)nc(C)c1Oc1nc(-c2cncc(C#N)c2)ccc1NS(=O)(=O)C1CC1 [Compound I-199] | 1 to 10 µM
50 | Cc1nc(C(F)(F)F)nc(C)c1Oc1nc(-c2cncc(C#N)c2)ccc1NS(C)(=O)=O [Compound I-200] | < 1 µM

Row | Structure (SMILES) | EC50
51 | Cc1cc(C)c(Oc2nc(-c3cncc(N4CCOCC4)c3)ccc2NS(C)(=O)=O)c(C)n1 [Compound I-201] | 1 to 10 µM
52 | Cc1cc(C(F)F)nc(C)c1Oc1nc(-c2cncc(Cl)c2)ccc1NS(C)(=O)=O [Compound I-202] | < 1 µM
53 | Cc1cc(C(F)F)nc(C)c1Oc1nc(-c2ccnc(C#N)c2)ccc1NS(=O)(=O)C1CC1 [Compound I-203] | < 1 µM
54 | Cc1cc(C(F)F)nc(C)c1Oc1nc(-c2ccnc(C#N)c2)ccc1NS(C)(=O)=O [Compound I-204] | < 1 µM
55 | Cc1nc(C(F)(F)F)nc(C)c1Oc1nc(-c2cncc(Cl)c2)ccc1NS(C)(=O)=O [Compound I-205] | < 1 µM
56 | COC(=O)c1cncc(-c2ccc(NS(C)(=O)=O)c(Oc3cc(C)n(C)n3)n2)c1 [Compound I-206] | 1 to 10 µM
57 | Cc1cc(C2CCC2)nc(C)c1Oc1nc(-c2cncc(C#N)c2)ccc1NS(C)(=O)=O [Compound I-208] | < 1 µM
58 | COc1nc(C)cc(C)c1Oc1nc(-c2cncc(C#N)c2)ccc1NS(C)(=O)=O [Compound I-209] | < 1 µM
59 | Cc1cc(C)c(Oc2nc(-c3ccnc(C#N)c3)ccc2NS(=O)(=O)C2CC2)c(C)n1 [Compound I-211] | < 1 µM
60 | C#Cc1cncc(-c2ccc(NS(C)(=O)=O)c(Oc3c(C)cc(C)nc3C)n2)c1 [Compound I-212] | < 1 µM
61 | Cc1cc(C2CC2)nc(C)c1Oc1nc(-c2ccnc(C#N)c2)ccc1NS(C)(=O)=O [Compound I-213] | < 1 µM
62 | Cc1cc(C)c(Oc2nc(-c3cncc(C4COC4)c3)ccc2NS(C)(=O)=O)c(C)n1 [Compound I-216] | < 1 µM
63 | CCS(=O)(=O)Nc1ccc(-c2cncc(C#N)c2)nc1Oc1c(C)cc(C(F)(F)F)nc1C [Compound I-217] | < 1 µM
64 | Cc1cc(C(F)(F)F)nc(C)c1Oc1nc(-c2cncc(C#N)c2)ccc1NS(=O)(=O)C1CC1 [Compound I-218] | < 1 µM
65 | Cc1cc(C(F)(F)F)nc(C)c1Oc1nc(-c2ccnc(C#N)c2)ccc1NS(C)(=O)=O [Compound I-219] | < 1 µM
66 | Cc1cc(C)c(Oc2nc(-c3cncc(C(C)(C)O)c3)ccc2NS(C)(=O)=O)c(C)n1 [Compound I-220] | ≥ 25 µM
67 | Cc1cc(C)c(Oc2nc(-c3cncc(C#N)c3)ccc2N2CCCS2(=O)=O)c(C)n1 [Compound I-221] | 1 to 10 µM
68 | COc1cc(C)c(Oc2nc(-c3cncc(C#N)c3)ccc2NS(C)(=O)=O)c(C)n1 [Compound I-222] | < 1 µM
69 | Cc1nc(C)c(C(F)(F)F)cc1Oc1nc(-c2cncc(C#N)c2)ccc1NS(C)(=O)=O [Compound I-225] | < 1 µM
70 | Cc1cc(Oc2nc(-c3cncc(C#N)c3)ccc2NS(C)(=O)=O)c(C)nc1C [Compound I-226] | < 1 µM
71 | Cc1cc(C)c(Oc2nc(-c3cncc(CO)c3)ccc2NS(C)(=O)=O)c(C)n1 [Compound I-227] | < 1 µM
72 | Cc1cc(C)c(Oc2nc(-c3cncc(C#N)c3)ccc2NS(=O)(=O)C2COC2)c(C)n1 [Compound I-228] | < 1 µM
73 | Cc1nc(C)c(C2CC2)cc1Oc1nc(-c2cncc(C#N)c2)ccc1NS(C)(=O)=O [Compound I-229] | 1 to 10 µM
